This note sets out measurements from ChEMBL document CHEMBL4130385, “Structure-function studies of BPP-BrachyNH2 and synthetic analogues thereof with Angiotensin I-Converting Enzyme” (Eur J Med Chem, 2017).

One data set deals with Erythrocyte. Kind of data set: Hemolytic activity against sheep blood erythrocytes at 10^-6 to 10^-4 M after 1 hr. It counts as ADME, cell-based, Ovis aries.
A short description of data set [1]: (§1) Cytotoxicity against BALB/c mouse peritoneal macrophages assessed as reduction in cell viability after 48 hrs by MTT assay. It counts as cell-based, Peritoneal macrophage. To be noted: BALB/c, peritoneal macrophages.
Data set [2] relates to Peritoneal macrophage. Kind of data set: Cytotoxicity against BALB/c mouse peritoneal macrophages assessed as reduction in cell viability at 10^-4 M after 48 hrs by MTT assay relative to control. The data set is classed as cell-based. To be noted: 100 µM. In general terms: Formazan colour is commonly taken as a measure of viable cells.
The target of data set [3] is T1, Angiotensin-converting enzyme (Rattus norvegicus, UniProt P47820).
T1 sequence (P47820 whole entry): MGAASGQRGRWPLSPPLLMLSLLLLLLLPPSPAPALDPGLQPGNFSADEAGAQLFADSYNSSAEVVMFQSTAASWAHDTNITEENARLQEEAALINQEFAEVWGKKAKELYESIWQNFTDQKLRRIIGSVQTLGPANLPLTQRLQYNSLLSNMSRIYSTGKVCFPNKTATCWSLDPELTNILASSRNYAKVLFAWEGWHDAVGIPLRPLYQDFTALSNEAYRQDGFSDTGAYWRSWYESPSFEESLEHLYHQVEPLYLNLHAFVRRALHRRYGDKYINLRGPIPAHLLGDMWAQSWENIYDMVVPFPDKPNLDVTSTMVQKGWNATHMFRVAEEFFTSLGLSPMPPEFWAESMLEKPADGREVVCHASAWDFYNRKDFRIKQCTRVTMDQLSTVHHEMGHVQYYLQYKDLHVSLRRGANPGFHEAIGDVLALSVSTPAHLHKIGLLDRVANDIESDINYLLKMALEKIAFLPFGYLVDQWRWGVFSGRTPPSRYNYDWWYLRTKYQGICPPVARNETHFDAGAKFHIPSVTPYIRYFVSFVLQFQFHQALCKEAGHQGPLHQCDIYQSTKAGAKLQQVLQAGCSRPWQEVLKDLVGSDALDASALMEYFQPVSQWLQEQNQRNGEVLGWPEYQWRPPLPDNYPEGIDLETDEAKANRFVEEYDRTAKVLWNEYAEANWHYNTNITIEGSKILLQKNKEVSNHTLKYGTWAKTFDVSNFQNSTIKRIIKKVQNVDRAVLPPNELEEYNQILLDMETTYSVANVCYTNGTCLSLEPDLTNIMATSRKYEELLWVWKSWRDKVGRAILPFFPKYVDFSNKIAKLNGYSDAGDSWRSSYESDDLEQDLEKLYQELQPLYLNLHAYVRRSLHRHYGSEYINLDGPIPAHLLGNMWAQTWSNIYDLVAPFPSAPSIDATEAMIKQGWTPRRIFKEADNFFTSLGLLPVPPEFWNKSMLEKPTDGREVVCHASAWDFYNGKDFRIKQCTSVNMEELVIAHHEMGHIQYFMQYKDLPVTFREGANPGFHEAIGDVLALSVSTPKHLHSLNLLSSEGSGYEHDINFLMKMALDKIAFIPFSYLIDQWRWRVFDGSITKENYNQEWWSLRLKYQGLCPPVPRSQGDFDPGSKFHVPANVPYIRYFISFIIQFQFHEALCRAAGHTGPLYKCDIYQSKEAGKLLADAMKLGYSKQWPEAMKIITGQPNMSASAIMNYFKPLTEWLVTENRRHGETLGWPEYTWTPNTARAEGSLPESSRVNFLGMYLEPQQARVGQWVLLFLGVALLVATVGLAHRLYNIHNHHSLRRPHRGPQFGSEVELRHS
Kind of data set: Inhibition of Wistar rat plasma angiotensin 1-converting enzyme using H-hippuryl-His-Leu-OH as substrate after 20 mins by fluorescence assay.

Data set [4] relates to Peritoneal macrophage. In words: Cytotoxicity against BALB/c mouse peritoneal macrophages assessed as reduction in cell viability at 5 x 10^-4 M after 48 hrs by MTT assay relative to control. The data set is classed as cell-based. To be noted: 500 µM.
For data set [5], the system named is Peritoneal macrophage. The data set is described as §1. It counts as cell-based. As to conditions: peritoneal macrophage, 48 h.

One may read the CC50 as the concentration at which the toxic effect on the cells reaches its halfway point. In general, IC50 refers to the concentration that inhibits the measured activity by half. As for H-WPPPKVS-NH2, the Activity entry is reported as “Non-Toxic” in the data set on Erythrocyte, 7.7% in the data set with Peritoneal macrophage [2] and 14.8% with Peritoneal macrophage [4]. In data set [1], the 50% cytotoxic concentration (CC50) at 48 h was determined as 33600 µM. The substance also registered an IC50 in data set [3] of 162 µM.

As to H-WPPPKVSP-NH2, the Activity result with Erythrocyte was “Non-Toxic”; in the data set on Peritoneal macrophage [5] it was “Dose-dependent effect”. In addition, in data set [1], the CC50 at 48 h turned out to be 176 µM. For the same substance, the IC50 in data set [3] was found to be 5.51 µM.

H-PPPKVSP-NH2: the Activity result with Erythrocyte is on record as “Non-Toxic”; in the data set on Peritoneal macrophage [5], “Dose-dependent effect”. The CC50 at 48 h in data set [1] turned out to be 81.9 µM. Besides, inhibition in data set [3] was half-maximal at 17.5 µM (IC50).
